Reference: patent publication US20210393742A1, “LONG-ACTING INTERLEUKIN-15 RECEPTOR AGONIST IN COMBINATION WITH ANOTHER PHARMACOLOGICALLY ACTIVE AGENT” (Nektar Therapeutics, priority 2018, published 2021)

Key:
[1] = tested on: STAT5 phosphorylation in KHYG-1 cells; assay: Phosphorylation of STAT5 in KHYG-1 cells (Example 7); type: cell-based, human; details: 10 minutes
Description: KHYG-1 cells were cultured in RPMI-1640 medium supplemented with 20% FBS, 2 mM L-glutamine, and 20 ng/mL IL-2 (Complete growth medium) in a humidified incubator at 37° C. and 5% CO2.
One day prior to treatment with test compounds, cells were seeded at a density of 500,000 viable cells/ml in Complete growth medium and incubated overnight under normal growth conditions. On the day of the assay, KHYG-1 cells were washed 3 times with DPBS, resuspended in assay medium (RPMI-1640 medium supplemented with 20% FBS, 2 mM L-glutamine), and incubated for 4-5 hours at 37° C., 5% CO2. Cells were adjusted to the appropriate density (8×10^5 cells/mL) in assay medium and 50,000 cells/well were aliquoted into wells of a 96-well plate (View-Plate 96, Perkin-Elmer).
KHYG-1 cells were stimulated with IL-15 or a long-acting IL-15 receptor agonist (mono(mPEG-butanamide)IL-15) followed by incubation at 37° C., 5% CO2 for 10 minutes. Treated cells were lysed on ice.
Detection of phospho-STAT5 protein levels in cell lysates was performed using the Phospho(Tyr694)/Total STAT5a,b Assay Whole Cell Lysate kit (MSD product #K15163D). Relative light unit (RLU) signal corresponding to phosphor-STAT5 was collected using a Sector® Imager 2400 plate reader (MSD) with the results provided in FIG. 10A.

[2] = tested on: human multiple myeloma RPMI-8226 cells; assay: ADCC of daratumumab-coated target cells by primed human NK cells (Example 12); type: cell-based; details: NK cells primed with 300 ng/mL overnight; daratumumab 1 μg/mL; E:T 10:1, 3 hours
Description: (§1) Human NK cells were magnetically sorted from normal donor PBMCs using negative selection. NK cells were seeded in a 96-well U-bottom plate at a density of 80,000 cells/well (FIG. 15A) OR 400,000 cells/well (FIG. 15B). NK cells were stimulated with 300 ng/mL of a long-acting IL-15 receptor agonist (mono(mPEG-butanamide)IL-15) (+) or left unstimulated (−) in complete RPMI-1640 media supplemented with 10% fetal bovine serum (FBS) and 1% antibiotic/antimycotic overnight at 37° C. in 5% CO2.
The human multiple myeloma RPMI-8226 cells (ATCC #CCL-155) were washed in PBS and stained with 0.15 μM CFSE for 5 min at 37° C. The stimulated NK cells (effector cells) and the daratumumab-coated (+1 μg/mL) CFSE-labeled tumor cells (target cells) were concurrently co-cultured in an E:T ratio of 10:1 for 3 hours at 37° C. in 5% CO2. Following incubation, cells were washed in flow staining buffer, Fc-blocked for 15 min at 4° C., and surface-stained (CD45, CD56, CD3-fluorescently conjugated antibodies). The cells were washed in PBS and incubated in 7-aminoactinomycin (7-AAD) viability stain for 30 minutes at 4° C. before acquiring for flow cytometric analysis using a Fortessa (BD). The percentage of 7-AAD+ CFSE+ target cells from total cell population is the percentage for dead tumor cells.

[3] = tested on: human B cell lymphoma (Daudi) cells; assay: ADCC of rituximab-coated target cells by primed human NK cells (Example 12); type: cell-based; details: NK cells primed with 300 ng/mL overnight; rituximab 10 ng/mL; E:T 2:1, 3 hr
Description: as §1
Alternatively, the human B cell lymphoma (Daudi) cells were washed in PBS and stained with 0.3 μM CFSE for 5 min at 37° C. The rituximab-coated (+10 ng/mL) CFSE-labeled tumor (target cells) cells were concurrently co-cultured with the NK cells (effector cells) in an E:T ratio of 2:1 for 3 hr at 37° C. in 5% CO2. Following incubation, cells were washed in flow staining buffer, Fc-blocked for 15 min at 4° C., and surface-stained (CD45, CD56, CD3-fluorescently conjugated antibodies). The cells were washed in PBS and incubated in 7-aminoactinomycin (7-AAD) viability stain for 30 minutes at 4° C. before acquiring for flow cytometric analysis using a Fortessa (BD). The percentage of 7-AAD+ CFSE+ target cells from total cell population is the percentage for dead tumor cells.

[4] = tested on: H1975 lung carcinoma cells; assay: Tumor growth in H1975 lung tumor model (Example 17); type: in vivo, mice; details: day 27 after treatment initiation; cetuximab 0.25 mg/kg IP x3; Compound 1 0.3 mg/kg IV x3
Description: Delay in loss of tumor growth control was evaluated on day 27 after treatment initiation.

[5] = tested on: HT-29 colorectal carcinoma cells; assay: Tumor growth inhibition and delay in HT-29 colorectal carcinoma model (Example 18); type: in vivo, mice; details: day 21 after treatment initiation; cetuximab 40 mg/kg IP x6; Compound 1 0.3 mg/kg IV x3
Description: Tumor growth inhibition was evaluated on day 21 after treatment initiation.
The tumor growth delay (TVQT) was evaluated with the endpoint set as 400% tumor growth from baseline.

FaDu cells = assay: ADCC of cetuximab-coated FaDu cells by primed human NK cells (Example 20); type: cell-based; details: NK cells primed with 300 ng/mL overnight; cetuximab 300 ng/mL; E:T 10:1, 3 hours
Description: Human NK cells were magnetically sorted from normal donor PBMCs using negative selection. NK cells were seeded in a 96-well U-bottom plate at a density of 400,000 cells/well. NK cells were stimulated with mono(methoxyPEG-N-butanamide)40 kD interleukin-15 (Compound 1) (300 ng/mL) (+) or left unstimulated (−) in complete RPMI-1640 media supplemented with 10% fetal bovine serum (FBS) and 1% antibiotic/antimycotic overnight at 37° C. in 5% CO2.
The epithelial/pharyngeal head and neck human FaDu cells (ATCC #HTB-43) were cultured in minimal eagle's essential media (EMEM; ATCC+30-2003) supplemented with 10% fetal bovine serum (FBS) and 1% antibiotic/antimycotic at 37° C. in 5% CO2. FaDu cells were subcultured by incubating in 0.25% Trypsin-0.53 mM EDTA for 5 min at 37° C., washed in sterile PBS, resuspended in culture media, counted, and co-cultured with the NK cells using an effector:target (E:T) of 10:1. […] Following incubation, cells were washed in flow staining buffer, Fc-blocked for 15 min at 4° C., and surface-stained (CD45, CD56, CD3-fluorescently conjugated antibodies) for 20 min at 4° C. in the dark. The cells were washed in PBS and incubated in 7-aminoactinomycin (7-AAD) viability stain for 30 minutes at 4° C. before acquiring for flow cytometric analysis using a Fortessa (BD). […]

NCI-N87 cells = assay: Tumor growth inhibition in NCI-N87 gastric carcinoma model (Example 22); type: in vivo, mice; details: 25 days after treatment initiation; trastuzumab 3/1/1 mg/kg IV; Compound 1 0.3 mg/kg IV x3
Description: Tumor growth inhibition in inoculated mice was measured 25 days after treatment initiation. Results are provided graphically in FIG. 25.

mono(methoxyPEG-N-butanamide)40 kD interleukin-15 [Conjugate 1]
phosphorylation of STAT5 [1]: dose-dependent phosphorylation of STAT5 | potency in STAT5 phosphorylation, fold less than IL-15 [1]: ~3 fold | ADCC, % 7-AAD+ target cells [2]: enhance ADCC | ADCC, % 7-AAD+ target cells [3]: enhance ADCC | tumor growth control [4]: no tumor growth inhibition | tumor growth inhibition [5]: no tumor growth inhibition | ADCC, % 7-AAD+CD45- target cells (FaDu cells): enhance ADCC of cetuximab-coated human solid tumor cells | tumor growth inhibition (NCI-N87 cells): no tumor growth inhibition
